Assay results taken from BigSolDB 2.1.

N#CCc1ccc([N+](=O)[O-])cc1
solubility (mole fraction)
Conditions | in ethylbenzene | in isobutanol | in isopropanol | in methanol | in n-butanol | in n-propanol | in toluene | in water
278.15 K | – | 0.000842 | 0.000901 | 0.00237 | 0.00128 | 0.00133 | 0.00791 | 1.5e-05
283.15 K | – | 0.00108 | 0.00119 | 0.00274 | 0.00147 | 0.00165 | 0.00966 | 1.94e-05
288.15 K | – | 0.00139 | 0.00153 | 0.00336 | 0.0019 | 0.00204 | 0.0117 | 2.48e-05
293.15 K | 0.00969 | 0.00178 | 0.00193 | 0.0043 | 0.00241 | 0.0026 | 0.0148 | 2.98e-05
298.15 K | 0.0118 | 0.00229 | 0.00252 | 0.00547 | 0.00306 | 0.00332 | 0.0177 | 3.55e-05
303.15 K | 0.0135 | 0.00299 | 0.00332 | 0.00695 | 0.00388 | 0.0042 | 0.0208 | 4.27e-05
308.15 K | 0.0163 | 0.00383 | 0.00424 | 0.00865 | 0.00501 | 0.00526 | 0.0252 | 5.2e-05
313.15 K | 0.0201 | 0.00492 | 0.00535 | 0.011 | 0.00643 | 0.00673 | 0.0298 | 6.4e-05
318.15 K | 0.0238 | 0.0063 | 0.00683 | 0.0136 | 0.00807 | 0.00847 | 0.0354 | 7.89e-05
323.15 K | 0.0284 | 0.00806 | 0.00864 | 0.017 | 0.0102 | 0.0107 | 0.0432 | 9.63e-05
328.15 K | 0.0343 | 0.0102 | 0.011 | 0.0212 | 0.0129 | 0.0135 | 0.053 | 0.000117
333.15 K | 0.0446 | 0.0129 | 0.0138 | 0.0262 | 0.0159 | 0.017 | 0.0657 | 0.000142
